Measured values from patent publication US9987242B2, “Treatment of Levodopa-induced Dyskinesias” (NORTHWESTERN UNIVERSITY, priority 2015, dated 2018).
“Also recorded” adds a separate entry of the source.

Tests used:
[1] = system: dSPN glutamatergic synapses; test: Spike-timing-dependent LTD induction (post-pre pairing) in dSPNs, ex vivo corticostriatal slices, perforated-patch or whole-cell recording; format: cell-based, mice
Description: Male C57Bl/6 and FVB mice expressing tdTomato or eGFP under control of either the Drd1 or Drd2 receptor regulatory elements were used. All the mice used for the study were hemizygous for these transgenes. For some experiments, D1-tdTomato BAC mice were crossed with a transgenic line expressing Cre recombinase under control of the ChAT promoter. All mice were 8-10 weeks of age before stereotaxic surgery. Animal use procedures were reviewed and approved by the Northwestern Institutional Animal Care and Use Committee.
Slices were then transferred to a holding chamber containing aCSF. After an incubation period at 34° C. for 30 min, the slices were then kept in the holding chamber at the room temperature for another 30 min before use.
Individual slices were transferred to a recording chamber and were continuously perfused (2-3 ml min^−1) with aCSF for the duration of the experiment. Experiments were performed in the dorsolateral striatum at elevated temperature (30-31° C.).
All the recordings were made using a MultiClamp 700 A amplifier, and signals were filtered at 2 kHz and digitized at 10 kHz. Data were excluded when the series resistance changed >20% over the time course of the experiment. […] Capacitance current was continuously monitored during perforation by applying a 5-10 mV pulse from a holding potential of −70 mV. The amplifier bridge circuit was adjusted to compensate for series resistance and continuously monitored during recordings. Electrode capacitance was also compensated. Data were excluded when the input resistance (Ri) changed >20% over the time course of the experiment.
Data analysis was conducted with Igor Pro 6 (Wavemetrics, Lake Oswego, Oreg.) and Clampfit 9 (Molecular Devices). EPSP amplitude was calculated from 50-60 sweeps immediately before the start of induction and 20-30 min after the end of induction. The change in EPSP amplitude was calculated by averaging EPSP values after the induction and normalized to the average baseline EPSP amplitude. Compiled data were expressed as mean±s.e.m. Statistical tests were performed using Excel (Microsoft, Redmond, Wash.) and SigmaStat (Systat, San Jose, Calif.). Non-parametric Mann-Whitney or Wilcoxon tests were used to assess the experiment results, using a probability threshold of 0.05.
To determine if M4Rs were modulating synaptic plasticity, a spike-timing-dependent plasticity (STDP) paradigm was used. […] Once identified, neurons were monitored and controlled with perforated-patch recording to preserve intracellular signaling mechanisms and to allow stable, long-term monitoring of synaptic strength (FIG. 1A).
Synaptic plasticity was induced by pairing local stimulation of glutamatergic afferent fibers with postsynaptic spikes evoked by short bursts of intracellular current injection that were repeated at 5 Hz (FIGS. 1B, 4A).

[2] = system: ChIs expressing DREADD hM3D(q); test: Discharge rate of DREADD hM3D(q)-expressing cholinergic interneurons, cell-attached patches in slices; format: cell-based, mice
Description: To determine the importance of endogenous cholinergic signaling in regulating synaptic plasticity, the discharge rate of ChIs was elevated using a Cre-dependent DREADD (Alexander et al., 2009; Armbruster et al., 2007; Ferguson et al., 2011; Kozorovitskiy et al., 2012; herein incorporated by reference in their entireties). Briefly, bi-transgenic mice expressing tdTomato in dSPNs and Cre-recombinase under control of the choline acetyltransferase (ChAT) promoter received striatal stereotaxic injections of an adeno-associated virus (AAV; serotype 2/8) containing the hM3D(q) expression construct (the University of North Carolina Vector Core). Mice were allowed to recover for 5-6 weeks before recordings. To activate the DREADD expressing ChIs, clozapine-N-oxide (CNO) was bath applied to ex vivo brain slice preparations.
To address the possibility that in an ex vivo slice preparation at 30-31° C., spontaneous ChI activity is low and could lead to effective enzymatic degradation of ACh near its release site and weak M4R activation, the ACh esterase inhibitor physostigmine (10 μM) was co-applied with the M4R PAM. […] Another way to compensate for lower than normal cholinergic signaling in ex vivo slices is to use designer receptors exclusively activated by designer drugs (DREADDs) to selectively increase ChI discharge rate (Alexander et al., 2009; Armbruster et al., 2007; herein incorporated by reference in their entireties). To this end, bi-transgenic mice expressing tdTomato in dSPNs and Cre-recombinase under control of the choline acetyltransferase (ChAT) promoter received striatal injections of an adeno-associated virus (AAV) containing an hM3D(q) expression construct having an upstream foxed STOP codon; this STOP codon is effectively excised by Cre-recombinase leading to DREADD expression (Ferguson et al., 2011; Kozorovitskiy et al., 2012; herein incorporated by reference in their entireties) (FIG. 2A). […]

iSPN synapses = test: Pre-post pairing protocol in iSPNs from 6-OHDA lesioned, L-DOPA treated mice; settings: 6-OHDA lesioned mice shortly after L-DOPA treatment
forelimb use asymmetry = test: Forelimb-use asymmetry test (cylinder test) in 6-OHDA lesioned mice; format: in vivo; settings: for forelimb use asymmetry: n=9
Procedure: (§1) After LID induction, mice were treated with either L-DOPA or L-DOPA and VU152100 (20-120 mg/kg, i.p.) on days 6-8; VU152100 is an M4R PAM with improved pharmacokinetic properties than VU10010.

[3] = system: dSPN glutamatergic synapses; test: Spike-timing-dependent LTP induction (pre-post pairing) in dSPNs, ex vivo slices; format: cell-based, mice
L-DOPA-induced AIMs = test: Abnormal involuntary movement (AIM) scoring in unilateral 6-OHDA lesioned mice with L-DOPA-induced dyskinesia; format: in vivo
Procedure: as §1

[4] = system: phosphorylated ERK1/2 and phosphorylated histone 3; test: Cells immunoreactive for pERK1/2 and pH3 in the dorsolateral striatum of LID mice; format: in vivo
Procedure: as §1

[5] = system: NMDAR-mediated currents in dSPNs; test: NMDAR-mediated uEPSCs and EPSCs in dSPNs, whole-cell voltage clamp; format: cell-based, mice; settings: muscarine 3 μM; local electrical stimulation
Procedure: For whole-cell voltage clamp recordings, patch pipettes were loaded with internal recording solution containing (mM): 120 CsMeSO3, 15 CsCl, 8 NaCl, 10 HEPES, 0.2 EGTA, 10 tetraethylammonium Chloride (TEA-Cl), 5 QX-314, 2 Mg-ATP, 0.3 Na-GTP; pH was adjusted to 7.25 with CsOH and osmolarity to ˜305 mOsm l^−1. All the recordings were made using a MultiClamp 700 A amplifier, and signals were filtered at 2 kHz and digitized at 10 kHz. Data were excluded when the series resistance changed >20% over the time course of the experiment. For perforated patch recordings, the internal recording solution comprised (in mM): 125 KMeSO4, 14 KCl, 2 MgCl2, 0.2 EGTA, 10 HEPES; pH was adjusted to 7.25 with NaOH and osmolarity to ˜280 mOsm l^−1. Amphotericin B was used to achieve electrical access through the perforated-patch method (Shen et al., 2007; 2008; herein incorporated by reference in their entireties). Capacitance current was continuously monitored during perforation by applying a 5-10 mV pulse from a holding potential of −70 mV. The amplifier bridge circuit was adjusted to compensate for series resistance and continuously monitored during recordings. Electrode capacitance was also compensated. Data were excluded when the input resistance (Ri) changed >20% over the time course of the experiment.
Glutamate uncaging was achieved using a Verdi/Mira (Coherent Laser Group, Santa Clara, Calif.) (Plotkin et al., 2014). 5 mM MNI-glutamate was superfused over the slice at 0.4 ml/hr using a syring pump and multi-barreled perfusion manifold (Cell MicroControls, Norfolk, Va.). The perfusion solution was (in mM): 124 NaCl, 3 KCl, 2 CaCl2, 1 NaH2PO4, 26 HEPES and 16.66 glucose, and also contained (in μM): 3 muscarine, 10 serine, 10 NBQX and 10 gabazine, plus or minus: 3 SKF81297 and/or 5 VU10010). Glutamate was uncaged adjacent to individual spines using 1 ms pulses of 720-725 nm light typically 10-20 mW in power at the sample plane. Photolysis power was tuned via a third Pockels cell modulator (Con Optics, Danbury, Conn.) to achieve uEPSCs≤5 pA. uEPSC amplitudes were measured from averaged (3-5 repetitions) traces. All uncaging experiments were performed in 0 mM Mg^2+-containing solutions.
To determine the situation in dSPNs, the effect of muscarine and VU10010 on NMDAR-mediated EPSCs evoked by uncaging glutamate on spine heads (uEPSCs) was examined in the presence of SKF81297.

[6] = VU152100 co-administered with L-DOPA vs L-DOPA

SMILES: Cc1c(C(=O)NN2CCCCC2)nn(-c2ccc(Cl)cc2Cl)c1-c1ccc(I)cc1 [AM251]
- LTD induction in dSPNs ([1]; AM251 2 μM with CNO): dependent upon endocannabinoid (eCB) CB 1 receptors; also recorded: LTD was blunted

SMILES: N[C@@H](CCCP(=O)(O)O)C(=O)O [APV]
- LTD induction in dSPNs ([1]; APV 50 μM with VU10010 5 μM): LTD was inducible

SMILES: CCCCn1c(=O)sn(CC)c1=O [CCG203769]
- LTD induction in dSPNs ([1]; CCG203769 10 μM intracellular, without VU10010): enhanced induction of LTD; also recorded: promoted the induction of LTD
- LTD induction in dSPNs ([1]; CCG203769 with VU+PHY+MT3 (M4R antagonized)): antagonizing M4Rs had no effect on dSPN LTD
- LTD induction in dSPNs ([1]; CCG203769 with VU+PHY+MT3 (M4R antagonized), listed as CCG): enhanced LTD induction

SMILES: C[N+]1([O-])CCN(C2=Nc3cc(Cl)ccc3Nc3ccccc32)CC1 [CNO, clozapine-N-oxide]
- LTD induction in adjacent dSPNs ([1]; CNO 10 μM, elevated ChI activity via DREADD hM3D(q)): led to a robust LTD
- ChI discharge rate, median ([2]; CNO 10 μM bath perfusion, n=5): 6.7 Hz
- ChI discharge rate, range ([2]; CNO 10 μM bath perfusion, n=5): 4.2-7.8 Hz
- ChI spontaneous discharge rate (in words) ([2]; CNO 10 μM, cell-attached patches): increased ChI spontaneous discharge rate

SMILES: N[C@@H](Cc1ccc(O)c(O)c1)C(=O)O [L-DOPA, L-3,4-dihydroxyphenylalanine]
- plasticity in iSPNs with pre-post pairing protocol (iSPN synapses): induced an LTD
- forelimb use asymmetry (forelimb use asymmetry; L-DOPA alone): 47.98±2.41
- STDP LTP induction in dSPNs ([3]; 6-OHDA lesioned mice, slices one hour after last L-DOPA injection): led to a robust LTP; also recorded: LTP was recovered

SMILES: Cc1cccc(C#Cc2ccccc2)n1 [MPEP]
- LTD induction in dSPNs ([1]; MPEP 10 μM with CCG203769): prevented the LTD induction; also recorded: LTD was disrupted

SMILES: N#CC(=C(/N)Sc1ccccc1N)/C(C#N)=C(\N)Sc1ccccc1N [U0126]
- STDP LTP induction in dSPNs ([3]; U0126 10 μM, dyskinetic (LID) mice): prevented LTP induction; also recorded: LTP was disrupted
- STDP LTP induction in dSPNs ([3]; U0126 10 μM, naive mice): disrupted STDP LTP; also recorded: LTP induction was disrupted

SMILES: COc1ccc(CNC(=O)c2sc3nc(C)cc(C)c3c2N)cc1 [VU152100]
- cumulative AIM scores (L-DOPA-induced AIMs; VU152100 60 mg/kg systemic, with L-DOPA): significantly reduced cumulative AIM scores
- anti-dyskinetic effect on doubling the dose (L-DOPA-induced AIMs; VU152100 120 mg/kg, with L-DOPA): did not increase the anti-dyskinetic effect
- AIM scores, dose relation (L-DOPA-induced AIMs; VU152100 20, 60, 120 mg/kg): dose-dependent effect
- L-DOPA-induced AIM scores (L-DOPA-induced AIMs; VU152100 20-120 mg/kg i.p. with L-DOPA, days 6-8): significantly attenuated
- level of phosphorylated ERK (pERK) ([4]; VU0152100 60 mg kg-1): reduced the levels of LID biomarkers
- level of phosphorylated histone3 (pH3) ([4]; VU0152100 60 mg kg-1): reduced the levels of LID biomarkers
- number of cells immunoreactive for phosphorylated ERK1/2 (pERK1/2) [4, 6]: reduced the number of cells; also recorded: reduced expression
- number of cells immunoreactive for phosphorylated histone 3 (pH3) [4, 6]: reduced the number of cells; also recorded: reduced expression
- forelimb use asymmetry (forelimb use asymmetry; L-DOPA+VU152100, p>0.05 vs L-DOPA): 38.6±3.04
- effect on anti-parkinsonian action of L-DOPA (forelimb use asymmetry) (forelimb use asymmetry; VU152100 co-administered with L-DOPA): did not occur at the expense of the anti-parkinsonian action of L-DOPA

SMILES: C[C@@H]1O[C@H](C[N+](C)(C)C)C[C@H]1O [muscarine]
- amplitudes of NMDAR-mediated EPSCs [5]: reduced the amplitudes

SMILES: CCN1CCCC1CNC(=O)c1cc(S(N)(=O)=O)ccc1OC (stereo not drawn) [sulpiride]
- LTD induction in dSPNs ([1]; sulpiride 10 μM with physostigmine 10 μM and VU10010 5 μM): LTD was induced
